Results taken from patent publication US20200297670A1, “Capsaicin Sequential Dosing Method for Treatment of Morton's Neuroma Pain” (Centrexion Therapeutics Corporation, priority 2016, published 2020).

System: pain due to an intermetatarsal neuroma
Experiment: Average walking pain due to intermetatarsal neuroma on Numeric Pain Rating Scale (NPRS) after two injected doses of trans-capsaicin
Format: in vivo, human
Settings: for reduction in patients' reported average walking pain due to the intermetatarsal neuroma (NPRS): 27 adult human patients
Protocol: Twenty-seven adult, human patients experiencing pain due to an intermetatarsal neuroma were treated by administering a first dose of trans-capsaicin (200 μg of trans-capsaicin) and then, after at least 11 weeks, administered a second dose of trans-capsaicin (200 μg of trans-capsaicin). Patients rated their average walking pain due to the intermetatarsal neuroma on a Numeric Pain Rating Scale (NPRS), where pain is characterized by the patient on a scale of zero to ten (with zero being “no pain”, and ten being “worst possible pain”). Patients rated their average walking pain due to the intermetatarsal neuroma on (i) just prior to receiving the injection of trans-capsaicin and (ii) four (4) weeks after receiving each injection of trans-capsaicin. Patients reported a reduction in average walking pain due to the intermetatarsal neuroma when measured at four weeks after injection of trans-capsaicin for each administration of trans-capsaicin.
trans-Capsaicin was administered to twenty-seven (27) adult, human patients experiencing pain due to an intermetatarsal neuroma according to the procedures described below. Prior to administering the first dose of trans-capsaicin in this study, patients reported an average walking pain due to the intermetatarsal neuroma of at least four on the Numeric Pain Rating Scale (NPRS). Patients received two doses of trans-capsaicin.
trans-Capsaicin was injected in the amount of 200 μg per dose by ultrasound-guided needle placement into the area of the neuroma (but not inserting the needle into the intermetatarsal neuroma itself). The dose of trans-capsaicin was injected as a 2 mL solution containing trans-capsaicin at a concentration of 100 μg/mL. […]
Pain due to the intermetatarsal neuroma was evaluated by having patients rate their average walking pain due to the intermetatarsal neuroma on a Numeric Pain Rating Scale (NPRS), where pain is characterized by the patient on a scale of zero to ten (with zero being “no pain”, and ten being “worst possible pain”). […]

## COc1cc(CNC(=O)CCCCC=CC(C)C)ccc1O [trans-capsaicin, N-[(4-hydroxy-3-methoxyphenyl)methyl]-8-methylnon-6-enamide]
First dose 200 μg trans-capsaicin injected into area of neuroma, four weeks after injection vs prior to first dose
  reduction in patients' reported average walking pain due to the intermetatarsal neuroma (NPRS): 1.6 point
Second dose 200 μg trans-capsaicin (83 to 196 days after first dose), four weeks after injection vs just prior to second dose
  reduction in patients' reported average walking pain due to the intermetatarsal neuroma (NPRS): 2.3 point
Repeat injection, 200 μg per dose, adult human patients
  effect of repeat injection on pain due to an intermetatarsal neuroma: effective in ameliorating pain
